Results reported in PubChem BioAssay (NCI).
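Exposure lasted 48 hours, with cells grown in 96-well plates and compounds tested at five concentrations. At the GI50, growth is halved. TGI is the concentration that stops growth completely.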

Assays:
Assay in all cases: NCI tumour cell line growth inhibition, 48 h
HOP-62 NSCLC = test system: HOP-62 NSCLC
HCC-2998 colon = test system: HCC-2998 colon
KM12 colon = test system: KM12 colon
A549 NSCLC = test system: A549 NSCLC
ACHN renal = test system: ACHN renal
OVCAR-4 ovarian = test system: OVCAR-4 ovarian
M14 melanoma = test system: M14 melanoma
RXF 393 renal = test system: RXF 393 renal
MCF7 breast = test system: MCF7 breast
CAKI-1 renal = test system: CAKI-1 renal
BT-549 breast = test system: BT-549 breast

SMILES	TGI (HOP-62 NSCLC) [µM]	TGI (HCC-2998 colon) [µM]	TGI (KM12 colon) [µM]	TGI (A549 NSCLC) [µM]	TGI (ACHN renal) [µM]	TGI (OVCAR-4 ovarian) [µM]	TGI (M14 melanoma) [µM]	TGI (RXF 393 renal) [µM]	TGI (MCF7 breast) [µM]	TGI (CAKI-1 renal) [µM]	TGI (BT-549 breast) [µM]	GI50 (BT-549 breast) [µM]	GI50 (HCC-2998 colon) [µM]	GI50 (KM12 colon) [µM]	GI50 (A549 NSCLC) [µM]	GI50 (ACHN renal) [µM]	GI50 (OVCAR-4 ovarian) [µM]	GI50 (RXF 393 renal) [µM]	GI50 (MCF7 breast) [µM]	GI50 (CAKI-1 renal) [µM]
N#Cc1nc(CCC(C(=O)O)N2C(=O)c3ccccc3C2=O)oc1N (centres undefined)	> 100	> 100	> 100	> 100	> 100	> 100	> 100	> 100	> 100	> 100	–	–	–	–	–	–	–	–	–	–
CC(=O)OC(C(=O)NNC(=O)OC(C)(C)C)c1ccccc1 (centres undefined)	> 100	> 100	> 100	> 100	> 100	–	> 100	> 100	> 100	> 100	> 100	–	–	–	–	–	–	–	–	–
NC(Cc1c2ccccc2cc2ccccc12)C(=O)O (centres undefined)	> 100	> 100	> 100	> 100	> 100	> 100	> 100	> 100	> 100	> 100	–	–	–	–	–	–	–	–	–	–
C[N+](C)(C)CC(=O)N/N=C\c1c(O)ccc2ccccc12	> 100	–	> 100	> 100	> 100	> 100	> 100	82.5	> 100	> 100	–	–	–	–	–	–	–	–	–	–
CC(C)C1CC(CO)(CNc2nc(N)nc(Cl)c2C=O)C1 (centres undefined)	37	4.32	> 46.7	31.4	22.8	10.9	3.24	28.3	> 100	–	52.2	–	–	–	–	–	–	–	–	–
CC(=O)OCCn1c(Cc2ccc(Cl)cc2)nn(C(C)=O)c1=O	–	> 100	> 100	> 100	> 100	> 100	> 100	–	> 100	> 100	> 100	–	–	–	–	–	–	–	–	–
COc1ccc2c(c1)SC1=Nc3sc4cc(OC)ccc4[n+]3CN12	> 100	–	71.9	> 100	> 100	–	> 100	–	31.4	> 100	> 100	–	–	–	–	–	–	–	–	–
C/C(=N\NC(N)=O)C(CN1CCOCC1)C(c1ccccc1)c1c(O)c2ccccc2oc1=O (centres undefined)	–	> 100	> 100	> 100	> 100	> 100	> 100	–	> 100	> 100	> 100	–	–	–	–	–	–	–	–	–
O=C1/C(=C/c2ccc(Cl)cc2)NC(=S)N1CN1CCCCC1	> 100	–	> 100	> 100	> 100	–	> 100	–	82.1	–	–	–	–	–	–	–	–	–	–	–
CCOP(=O)(OCC)/C(F)=C/c1ccc(F)cc1	> 100	–	> 100	> 100	> 100	> 100	> 100	> 100	> 100	> 100	> 100	–	–	–	–	–	–	–	–	–
COc1cc(/C=C2\C(=O)Nc3ccc(O)cc32)cc(OC)c1OC	–	20.9	> 100	88	78.6	55.7	–	5.94	> 100	83.1	29.4	11	7.46	17	21	15.9	11.1	2.19	8.59	23.1
